Assay results published in patent US7645864B2, “Erythromycin derivative having novel crystal structures and processes for their production” (Chugai Seiyaku Kabushiki Kaisha, priority 2001, dated 2010).

Test: Average particle size by particle size distribution analyzer
Type: physicochemical
Details: D-form crystal
Text: The content of residual solvent may be determined in a known manner, for example, by gas chromatography. The details on gas chromatography can be found in the Japanese Pharmacopoeia, 13th Edition, published by Hirokawa Publishing Co. (1996) pp. B83-B94, the Japanese Pharmacopoeia, 14th Edition, published by Hirokawa Publishing Co. (2001) pp. B98-B114 and elsewhere. In general, gas chromatography will cause a measurement error falling within around ±1%. The compound of the present invention can also be determined for its average particle size in a known manner or using various devices that are commercially available, such as a dry particle size distribution analyzer. In general, such a particle size distribution analyzer will cause a measurement error falling within around ±5%.
In these examples and comparison examples, X-ray diffractometry was performed using a powder X-ray diffractometer RINT-1100 (Rigaku), the content of residual solvent was determined using a gas chromatograph GC-17A (Shimadzu Corp.), and the average particle size was determined using a particle size distribution analyzer RPS-95 (Seishin Enterprise Co., Ltd.).

Compound	Particle size (average particle size) [μm]
CC[C@H]1OC(=O)[C@H](C)[C@@H](O[C@H]2C[C@@](C)(OC)[C@@H](O)[C@H](C)O2)[C@H](C)[C@@H](O[C@@H]2O[C@H](C)C[C@H](N(C)C(C)C)[C@H]2O)[C@]2(C)CC(C)=C(O2)[C@H](C)C(=O)[C@]1(C)OC [Example 7]	163
CC[C@H]1OC(=O)[C@H](C)[C@@H](O[C@H]2C[C@@](C)(OC)[C@@H](O)[C@H](C)O2)[C@H](C)[C@@H](O[C@@H]2O[C@H](C)C[C@H](N(C)C(C)C)[C@H]2O)[C@]2(C)CC(C)=C(O2)[C@H](C)C(=O)[C@]1(C)OC [Comparison Example 2, reference compound]	61
CC[C@H]1OC(=O)[C@H](C)[C@@H](O[C@H]2C[C@@](C)(OC)[C@@H](O)[C@H](C)O2)[C@H](C)[C@@H](O[C@@H]2O[C@H](C)C[C@H](N(C)C(C)C)[C@H]2O)[C@]2(C)CC(C)=C(O2)[C@H](C)C(=O)[C@]1(C)OC [Example 8]	185

The next lines start with the values.

Particle size (average particle size) [μm]	Compound
82	CC[C@H]1OC(=O)[C@H](C)[C@@H](O[C@H]2C[C@@](C)(OC)[C@@H](O)[C@H](C)O2)[C@H](C)[C@@H](O[C@@H]2O[C@H](C)C[C@H](N(C)C(C)C)[C@H]2O)[C@]2(C)CC(C)=C(O2)[C@H](C)C(=O)[C@]1(C)OC [Comparison Example 1, reference compound]
302	CC[C@H]1OC(=O)[C@H](C)[C@@H](O[C@H]2C[C@@](C)(OC)[C@@H](O)[C@H](C)O2)[C@H](C)[C@@H](O[C@@H]2O[C@H](C)C[C@H](N(C)C(C)C)[C@H]2O)[C@]2(C)CC(C)=C(O2)[C@H](C)C(=O)[C@]1(C)OC [Example 2]
197	CC[C@H]1OC(=O)[C@H](C)[C@@H](O[C@H]2C[C@@](C)(OC)[C@@H](O)[C@H](C)O2)[C@H](C)[C@@H](O[C@@H]2O[C@H](C)C[C@H](N(C)C(C)C)[C@H]2O)[C@]2(C)CC(C)=C(O2)[C@H](C)C(=O)[C@]1(C)OC [Example 3]

Test: not given
Details: reported in JP 9-100291 A; cited from earlier work

Compound	Stability compared with the A-type and C-type crystals
CC[C@H]1OC(=O)[C@H](C)[C@@H](O[C@H]2C[C@@](C)(OC)[C@@H](O)[C@H](C)O2)[C@H](C)[C@@H](O[C@@H]2O[C@H](C)C[C@H](N(C)C(C)C)[C@H]2O)[C@]2(C)CC(C)=C(O2)[C@H](C)C(=O)[C@]1(C)OC [D-type crystal]	superior in stability
